Reference: PubChem BioAssay (NCI)
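Step 1: Grow cells in 96-well plates. Step 2: Expose to compound for 48 hours at 5 concentrations. Step 3: Interpolate endpoints linearly; if unreached, use highest concentration. TGI denotes the concentration required for complete inhibition of growth.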

What was measured:
Experiment in all cases: growth of human tumour cells (NCI), 48 h
HCT-116 colon = system: HCT-116 colon
MDA-MB-435 = system: MDA-MB-435
K-562 leukemia = system: K-562 leukemia
U251 CNS = system: U251 CNS
RXF 393 renal = system: RXF 393 renal
CCRF-CEM leukemia = system: CCRF-CEM leukemia
IGROV1 ovarian = system: IGROV1 ovarian
NCI/ADR-RES ovarian = system: NCI/ADR-RES ovarian
A549 NSCLC = system: A549 NSCLC
HOP-92 NSCLC = system: HOP-92 NSCLC

Structure (SMILES) | TGI (HCT-116 colon) [µM] | TGI (MDA-MB-435) [µM] | TGI (K-562 leukemia) [µM] | TGI (U251 CNS) [µM] | TGI (RXF 393 renal) [µM] | TGI (CCRF-CEM leukemia) [µM] | TGI (IGROV1 ovarian) [µM] | TGI (NCI/ADR-RES ovarian) [µM] | TGI (A549 NSCLC) [µM] | TGI (HOP-92 NSCLC) [µM]
CC(=O)N1CC[N+](C)(CCCCN2c3ccccc3Sc3cc(N=[N+]=[N-])ccc32)CC1 | > 100 | > 100 | > 100 | > 100 | > 100 | > 100 | > 100 | > 100 | > 100 | –
Clc1ccc2c(c1)CC1C[N+]3=C(CCCC3)C1=C2 (stereo unspecified) | > 100 | > 100 | > 100 | > 100 | > 100 | > 100 | > 100 | > 100 | > 100 | > 100
NC(CCCNc1cccc(O)c1)C(=O)O (stereo unspecified) | > 100 | – | > 100 | > 100 | > 100 | > 100 | – | – | > 100 | > 100
COc1cc(C2c3[nH]c4ccc(F)cc4c3C[C@H]3COC(=O)N23)cc(OC)c1O (stereo partly specified) | 25.5 | – | > 100 | 25 | 19.1 | > 100 | > 100 | > 100 | 28.3 | > 100
COc1cc2c(oc(=O)c3cc4ccoc4c(OC)c32)c2cccc(O)c12 | > 100 | – | > 100 | > 100 | > 100 | > 100 | > 100 | – | > 100 | > 100
CC(C)C(Sc1nc(-c2ccccc2)c(-c2ccccc2)[nH]1)C(=O)N/N=C/c1ccc([N+](=O)[O-])cc1 (stereo unspecified) | 28 | – | – | 29.8 | – | 28.2 | 42.2 | – | 66.3 | 35.4
Cc1nc(N)c(N2CCN(Cc3ccccc3)CC2)c(=O)[nH]1 | > 100 | > 100 | > 100 | > 100 | – | > 100 | – | > 100 | > 100 | –
COc1cc(CNC(=O)[C@H](Cc2ccc(O)cn2)NC(C)=O)cc(OC)c1 | > 100 | > 100 | > 100 | > 100 | > 100 | > 100 | > 100 | > 100 | > 100 | 75.5
BrCCC[P+](c1ccccc1)(c1ccccc1)c1ccccc1 | 2.99 | > 51.8 | > 100 | > 100 | 7.55 | > 100 | > 66.9 | > 100 | > 63.8 | 44.4
O=C1/C(=C/c2ccc(Cl)cc2)N=C(c2ccccc2)N1C1Nc2cc3c(cc2S1)NC(N1C(=O)/C(=C/c2ccc(Cl)cc2)N=C1c1ccccc1)S3 (stereo unspecified) | > 100 | > 100 | > 100 | > 100 | > 100 | > 100 | > 100 | > 100 | – | > 100
COc1cc(-c2c3c([nH]c(=O)c2C#N)-c2cc([N+](=O)[O-])ccc2CCC3)cc(OC)c1OC | 37.7 | > 100 | > 100 | > 100 | 82.8 | > 100 | > 100 | > 100 | 81.8 | > 100
CC(C)c1ccc2c(c1)C=C1OC(=O)[C@]3(C)CCC[C@@]2(C)C13 (stereo partly specified) | > 100 | > 100 | > 100 | > 100 | > 100 | > 100 | > 100 | > 100 | > 100 | –
O=C1NC(N/N=C/c2ccccc2)=N/C1=C\c1cccs1 | 36.3 | 34.6 | > 80.3 | 32.8 | 40.7 | > 75.8 | 34.4 | 37.6 | > 100 | 32.4
COP(=O)(OC)C(O)/C=C(\Cl)c1ccc(Cl)cc1 (stereo unspecified) | 36.2 | > 100 | > 100 | > 100 | > 100 | 49 | > 100 | 55.7 | > 100 | 45.3
CNC(=O)c1n[nH]n(Cc2ccccc2)c1=S | > 100 | > 100 | > 100 | > 100 | > 100 | > 100 | > 100 | > 100 | > 100 | –
COc1cc(S(=O)(=O)Nc2ccc(-c3csc(N4C(=O)C(C)SC4c4ccccc4O)n3)cc2)ccc1Cl (stereo unspecified) | > 100 | > 100 | > 100 | – | – | > 100 | > 100 | > 100 | > 100 | > 100
CC1(C)O[C@H]2[C@@H]3N=C(c4ccccc4)O[C@@H]3C=C[C@H]2O1 | > 100 | > 100 | > 100 | > 100 | – | > 100 | > 100 | > 100 | > 100 | > 100
CCN(CC)c1nc(N(C)C)c2ccc(OC)cc2n1 | 20.1 | 24.6 | 66.6 | 71.8 | 34.7 | – | > 100 | 69.1 | > 100 | > 100
CC(C)[Si](OCC1CC(C[C@H]2CC(C[C@H]3C[C@@H](CO[Si](C(C)C)(C(C)C)C(C)C)OC(C)(C)O3)OC(C)(C)O2)OC(C)(C)O1)(C(C)C)C(C)C (stereo partly specified) | > 100 | – | > 100 | > 100 | > 100 | > 100 | > 100 | – | > 100 | > 100
CC(C)/C(Cl)=N\OC(=O)Nc1ccc(F)c([N+](=O)[O-])c1 | 11.7 | 26 | > 100 | 31.1 | 33 | – | 13.5 | 35.2 | 56 | 4.77
Cc1cc(C)nc(NS(=O)(=O)c2ccc(NNC(=O)c3cccc4c(NNc5ccc(S(=O)(=O)Nc6nc(C)cc(C)n6)cc5)c5ccccc5nc34)cc2)n1 | 48.2 | 39.4 | 52.4 | 46.6 | 48.7 | 51.2 | 57.1 | > 100 | 96.8 | 70.3
